Among the data in patent US7399775B2, “β-amyloid protein production/secretion inhibitor” (Daiichi Pharmaceutical Co., Ltd., priority 2001, dated 2008) are melting point values, retold here.

As usually defined, the melting point is the temperature of the solid-liquid transition. The compound `O=S(=O)(c1ccc(Cl)cc1)C(CCCCO)(CCCCO)c1cc(F)ccc1F` [Example 19, 5-[(4-Chlorophenyl)sulfonyl]-5-(2,5-difluorophenyl)-1,9-nonanediol] gave a melting point of 107 to 108.5 °C.
The compound `CS(=O)(=O)NCCCC(c1cc(F)ccc1F)S(=O)(=O)c1ccc(Cl)cc1` (stereo not drawn) [Example 230, N-[4-[(4-Chlorophenyl)sulfonyl]-4-(2,5-difluorophenyl)butyl]methanesulfonamide] registered a melting point of 128 °C.
As for `CC(C)(C)OC(=O)CC(c1cc(F)ccc1F)S(=O)(=O)c1ccc(Cl)cc1` (stereo not drawn) [Example 61, t-Butyl 3-[(4-chlorophenyl)sulfonyl]-3-(2,5-difluorophenyl)propionate], the melting point fell in the range of 140.5 to 142 °C.
As to `Cc1ccc(C(c2cc(F)ccc2F)S(=O)(=O)c2ccc(Cl)cc2)nc1` (stereo not drawn) [Example 137, 2-[[(4-Chlorophenyl)sulfonyl]-(2,5-difluorophenyl)methyl]-5-methylpyridine], the melting point is 159 to 160 °C.
As for `CC(C)(C)OC(=O)N1CCC(C(c2cc(F)ccc2F)S(=O)(=O)c2ccc(Cl)cc2)CC1` (stereo not drawn) [Example 290, t-Butyl 4-[[(4-chlorophenyl)sulfonyl](2,5-difluorophenyl)methyl]-1-piperidinecarboxylate], the melting point is 193 to 196 °C.
On to `CN(C)S(=O)(=O)N1CCC(c2cc(F)ccc2F)(S(=O)(=O)c2ccc(Cl)cc2)CC1` [Example 270, N,N-Dimethyl-4-[(4-chlorophenyl)sulfonyl]-4-(2,5-difluorophenyl)-1-piperidinesulfonamide], for which the melting point was 125 to 129 °C.
Regarding `O=S(=O)(c1ccc(Cl)cc1)C(CC[S+]([O-])CCO)c1cc(F)ccc1F` (stereo not drawn) [Example 254, 2-[3-[(4-Chlorophenyl)sulfonyl]-3-(2,5-difluorophenyl)propylsulfinyl]ethanol], the melting point lay in the range of 124 to 132 °C.
Then `O=C(CCCCC(c1cc(F)ccc1F)S(=O)(=O)c1ccc(Cl)cc1)N1CCCC1` (stereo not drawn) [Example 204], with 135 to 136 °C.
As for `CC(C)(c1cc(F)ccc1F)S(=O)(=O)c1ccc(Cl)cc1` [Example 232, 2-[1-[(4-Chlorophenyl)sulfonyl]-1-methylethyl]-1,4-difluorobenzene], the melting point is 147 to 148 °C.
Next, `CS(=O)(=O)CCCCC(c1cncs1)S(=O)(=O)c1ccc(Cl)cc1` (stereo not drawn) [Example 114, 5-[1-[(4-Chlorophenyl)sulfonyl]-5-(methylsulfonyl)pentyl]thiazole]: 95 to 96 °C; `CC(C)CCCC(c1cc(F)ccc1F)S(=O)(=O)c1ccc(Cl)cc1` (stereo not drawn) [Example 325, 2-[1-(4-Chlorophenylsulfonyl)-5-methylhexyl]-1,4-difluorobenzene]: 79 to 80 °C; `O=S(=O)(c1ccc(Cl)cc1)C(CCSCCO)c1cc(F)ccc1F` (stereo not drawn) [Example 250, 2-[3-[(4-Chlorophenyl)sulfonyl]-3-(2,5-difluorophenyl)propylthio]ethanol]: 108 to 110 °C.
In turn, `CS(=O)(=O)CCCCC(c1cscn1)S(=O)(=O)c1ccc(Cl)cc1` (stereo not drawn) [Example 112, 4-[1-(4-Chlorophenylsulfonyl)-5-(methylsulfonyl)pentyl]thiazole] gave a melting point of 123 to 125 °C.
`O=S(=O)(c1ccc(Cl)cc1)C(c1ccccn1)c1cc(F)ccc1F` (stereo not drawn) [Example 135, 2-[[(4-Chlorophenyl)sulfonyl]-(2,5-difluorophenyl)methyl]pyridine] had a melting point of 171 to 172 °C.
With `Fc1ccc(F)c(C(Sc2ccc(Cl)cc2)c2ccncc2Cl)c1` (stereo not drawn) [Example 341, 3-Chloro-4-[(4-chlorophenylthio)-(2,5-difluorophenyl)methyl]pyridine], the melting point lay within 70 to 72 °C.
For the compound `O=S(=O)(c1ccc(Cl)cc1)C1(c2ccccc2CO)CCCCC1` [Example 286, [2-[1-[(4-Chlorophenyl)sulfonyl]cyclohexyl]phenyl]methanol], the melting point is 148 to 150 °C (dec.).
On to `Cl.O=C(OCCC(c1cc(F)ccc1F)S(=O)(=O)c1ccc(Cl)cc1)N1CCN(Cc2ccccc2)CC1` (stereo not drawn), for which the melting point was in the range of 184 to 189 °C.
Compound `Fc1ccc(F)c(C(Sc2ccc(Cl)cc2)c2ccc(C3OCCO3)cn2)c1` (stereo not drawn) [Example 329, 2-[(4-Chlorophenylthio)-(2,5-difluorophenyl)methyl]-5-(1,3-dioxolan-2-yl)pyridine] had a melting point of 70 to 73 °C.
Compound `O=S(=O)(c1ccc(Cl)cc1)C1(c2cccnc2Cl)CCCCCC1` [Example 108, 2-Chloro-3-[1-(4-chlorophenylsulfonyl)cycloheptyl]pyridine] came in with a melting point of 168 to 169 °C.
`CS(=O)(=O)CCCCC(c1cccc(F)c1F)S(=O)(=O)c1ccc(Cl)cc1` (stereo not drawn) [Example 77, 1-[1-(4-Chlorophenylsulfonyl)-5-(methylsulfonyl)pentyl]-2,3-difluorobenzene] had a melting point of 141 to 143 °C.
`O=S(=O)(c1ccc(Cl)cc1)C1(c2cccnc2Cl)CCCCC1` [Example 109, 2-Chloro-3-[1-(4-chlorophenylsulfonyl)cyclohexyl]pyridine]: the melting point fell in the range of 129 to 131 °C.
Then `O=C1OCCN1CCCC(c1cc(F)ccc1F)S(=O)(=O)c1ccc(Cl)cc1` (stereo not drawn) [Example 225, 3-[4-[(4-Chlorophenyl)sulfonyl]-4-(2,5-difluorophenyl)butyl]-2-oxazolidinone], with 156 to 159 °C; and `O=S(=O)(c1ccc(Cl)cc1)C(Cc1ccco1)c1cc(F)ccc1F` (stereo not drawn) [Example 296, 2-[2-[(4-Chlorophenyl)sulfonyl]-2-(2,5-difluorophenyl)ethyl]furan], with 90 to 93 °C.
In turn, `O=C(CC(c1cc(F)ccc1F)S(=O)(=O)c1ccc(Cl)cc1)OCc1ccccc1` (stereo not drawn) [Example 59, Benzyl 3-(4-chlorophenylsulfonyl)-3-(2,5-difluorophenyl)propionate] had a melting point of 127 to 128 °C.
Take `O=S(=O)(c1ccc(Cl)cc1)C(CCN1CCOCC1)c1cc(F)ccc1F` (stereo not drawn) [Example 298, 4-[3-[(4-Chlorophenyl)sulfonyl]-3-(2,5-difluorophenyl)propyl]morpholine]: the melting point fell in the range of 149 to 151 °C.
As for `Cc1cccc(CCC(c2cc(F)ccc2F)S(=O)(=O)c2ccc(Cl)cc2)c1` (stereo not drawn) [Example 306, 2-[1-(4-Chlorophenylsulfonyl)-3-(3-methylphenyl)propyl]-1,4-difluorobenzene], the melting point is 87 to 88 °C.
The compound `COc1ccc(-n2ccnc2C(c2cc(F)ccc2F)S(=O)(=O)c2ccc(Cl)cc2)cc1` (stereo not drawn) [Example 153, 2-[[(4-Chlorophenyl)sulfonyl]-(2,5-difluorophenyl)methyl]-1-(4-methoxyphenyl)-1H-imidazole] yielded a melting point of 150 to 151 °C.
Next, `O=S(=O)(c1ccc(Cl)cc1)C(CCC1CCCC1)c1cc(F)ccc1F` (stereo not drawn) [Example 315, 2-[1-(4-Chlorophenylsulfonyl)-3-cyclopentylpropyl]-1,4-difluorobenzene]: 93 to 94 °C.
The compound `CCCCC(c1ccncc1)S(=O)(=O)c1ccc(Cl)cc1` (stereo not drawn) [Example 120, 4-[1-(4-Chlorophenylsulfonyl)pentyl]pyridine] came in with a melting point of 109 to 111 °C.
As to `Cn1c(Cl)cnc1C(c1cc(F)ccc1F)S(=O)(=O)c1ccc(Cl)cc1` (stereo not drawn) [Example 151, 2-[[(4-Chlorophenyl)sulfonyl]-(2,5-difluorophenyl)methyl]-1-methyl-5-chloro-1H-imidazole], the melting point was 179 to 180 °C.
